Assay results published in US11873298B2, “Compounds and uses thereof” (JANSSEN PHARMACEUTICA NV, priority 2017, dated 2024).

How the values were obtained:
[1] = target: T1, SCD5 (Homo sapiens, UniProt Q86SK9); assay: Growth inhibition of humanized yeast strain expressing SCD5 as sole desaturase; format: cell-based; conditions: humanized yeast strain, 40 h
T1 construct: host or cells: S. cerevisiae ole1Δ strain (W303 pdr1Δ pdr3Δ background), plasmid pRS316 with TDH3 promoter and CYC1 terminator
T1 sequence (Q86SK9 1-330): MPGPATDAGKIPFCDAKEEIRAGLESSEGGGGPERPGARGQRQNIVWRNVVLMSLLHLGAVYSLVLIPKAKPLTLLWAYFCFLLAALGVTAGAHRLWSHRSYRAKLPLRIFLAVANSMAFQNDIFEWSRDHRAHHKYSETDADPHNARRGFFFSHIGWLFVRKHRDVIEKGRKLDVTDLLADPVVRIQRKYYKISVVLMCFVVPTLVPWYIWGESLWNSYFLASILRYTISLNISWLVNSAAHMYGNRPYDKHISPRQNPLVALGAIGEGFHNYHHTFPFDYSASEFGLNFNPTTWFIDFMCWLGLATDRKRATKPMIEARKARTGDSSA
Method in brief: (§1)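 OD600 growth read-out. ole1Δ yeast, pdr1Δ pdr3Δ, with Ole1/SCD1/SCD5 on a plasmid; SX-Ura media throughout; 2× cell density 0.02 in CSM-Galactose; DMSO compound dilutions; humidified 30° C.; Ole1 stopped at 24 h, SCD1/SCD5 at 40 h.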

[2] = target: T2, SCD1 (Homo sapiens, UniProt O00767); assay: Growth inhibition of humanized yeast strain expressing SCD1 as sole desaturase; format: cell-based; conditions: humanized yeast strain, 40 h
T2 construct: host or cells: S. cerevisiae ole1Δ strain (W303 pdr1Δ pdr3Δ background), plasmid pRS316 with TDH3 promoter and CYC1 terminator
T2 sequence (O00767 1-359): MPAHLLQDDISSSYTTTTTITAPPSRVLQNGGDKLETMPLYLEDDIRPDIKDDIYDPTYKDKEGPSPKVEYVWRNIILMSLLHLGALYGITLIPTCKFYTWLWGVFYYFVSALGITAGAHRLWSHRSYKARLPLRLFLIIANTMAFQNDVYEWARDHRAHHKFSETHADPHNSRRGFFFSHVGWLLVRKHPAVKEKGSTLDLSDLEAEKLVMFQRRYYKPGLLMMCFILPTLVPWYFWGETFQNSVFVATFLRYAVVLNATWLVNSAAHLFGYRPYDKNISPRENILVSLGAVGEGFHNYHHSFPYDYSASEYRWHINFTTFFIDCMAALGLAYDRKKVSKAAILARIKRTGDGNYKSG
Method in brief: as §1

Compound	IC50 [1] [nM]	IC50 [2] [nM]
CC(C)C(=O)N1CC[C@@H](c2noc(-c3ccc4cnn(C5COC5)c4c3)n2)C[C@@H]1C [Compound 1055]	4.88	> 45000
C[C@H]1C[C@H](c2noc(-c3ccc4cnn(C5COC5)c4c3)n2)CCN1C(=O)C1CCC1 [Compound 1056]	4.69	> 45000
O=C(N1CCN(c2noc(-c3ccc4cnn(C5COC5)c4c3)n2)CC(F)(F)C1)C1(F)CC1 [Compound 1057]	23	> 45000
CC(C)C(=O)N1CC[C@H](c2noc(-c3ccc4cnn(C5COC5)c4c3)n2)C[C@H]1C [Compound 1058]	3.67	> 45000
COC(=O)N1CC[C@H](c2noc(-c3ccc4cnn(C5COC5)c4c3)n2)C[C@H]1C [Compound 1059]	2.23	> 45000
CC1(OC(=O)N2CCC(c3noc(-c4ccc5cnn(C6CS(=O)(=O)C6)c5c4)n3)CC2)CC1 [Compound 1060]	184	> 45000
O=C(C1CCC1)N1CCC(c2noc(-c3cc(F)c4cnn(C5COC5)c4c3)n2)CC1 [Compound 1061]	10	> 45000
O=C(N1CCC(c2noc(-c3cc(F)c4cnn(C5COC5)c4c3)n2)CC1)C1(F)CC1 [Compound 1062]	10	29000
COC(=O)N1CC2(C1)CN(c1noc(-c3ccc4cnn(C5COC5)c4c3)n1)C2 [Compound 1063]	3440	> 45000
COC(=O)N1CCC(c2noc(-c3ccnc(OC4COC4)c3)n2)CC1 [Compound 1064]	3440	> 45000
C[C@@H]1C[C@@H](c2noc(-c3ccc4cnn(C5COC5)c4c3)n2)CCN1C(=O)C1(F)CC1 [Compound 1065]	0.386	> 45000
C[C@@H]1C[C@@H](c2noc(-c3ccc4cnn(C5COC5)c4c3)n2)CCN1C(=O)C1CCC1 [Compound 1066]	0.681	> 45000
O=C(C1CC1)N1CCC(c2noc(-c3cc(F)c4cnn(C5COC5)c4c3)n2)CC1 [Compound 1067]	4.98	> 45000
CC(C)C(=O)N1CCC(c2noc(-c3cc(F)c4cnn(C5COC5)c4c3)n2)CC1 [Compound 1068]	3.75	> 45000
CC1(OC(=O)N2CCC(c3noc(-c4cc(F)c5cnn(C6COC6)c5c4)n3)CC2)CC1 [Compound 1069]	0.862	> 45000
COC(=O)N1CCC(c2noc(-c3cc(C)c4cnn(C5COC5)c4c3)n2)CC1 [Compound 1070]	81	> 45000
O=C(OC1CC1)N1CCC(c2noc(-c3cc(F)c4cnn(C5COC5)c4c3)n2)CC1 [Compound 1071]	3.03	> 45000
CCC(=O)N1CCC(c2noc(-c3cc(F)c4cnn(C5COC5)c4c3)n2)CC1 [Compound 1072]	21	> 45000
COC(=O)N1CCC(c2noc(-c3cc(F)c4cnn(C5CCOC5)c4c3)n2)CC1 (stereo not drawn) [Compound 1073]	2.52	8360

Compound	IC50 [1] [nM]	IC50 [2] [nM]
CC(C)(C)OC(=O)N1CC2(C1)CN(c1noc(-c3ccc4cnn(C5COC5)c4c3)n1)C2 [Compound 1074]	1960	5430
CC(C)(C)OC(=O)N1CCC(c2noc(-c3cc(F)c4cnn(C5CCOC5)c4c3)n2)CC1 (stereo not drawn) [Compound 1075]	10	4400
COc1cc(-c2nc(C3CCN(C(=O)OC(C)(C)C)CC3)no2)cc2c1cnn2C1COC1 [Compound 1076]	1030	> 45000
COC(=O)N1CCC(c2noc(-c3ccc4cnn(C5CCS(=O)(=O)C5)c4c3)n2)CC1 (stereo not drawn) [Compound 1077]	300	> 45000
COC(=O)N1CCC(c2noc(-c3ccc4cnn(C5CCC(F)(F)C5)c4c3)n2)CC1 (stereo not drawn) [Compound 1078]	33	> 45000
O=C(N1CCC(c2noc(-c3cccc(N4CCOCC4)c3)n2)CC1)C1(F)CC1 [Compound 1080]	501	> 45000
COC(=O)N1CCC(c2noc(-c3ccnc(CC4CC4)c3)n2)CC1 [Compound 1081]	2430	> 45000
CC(C)(C)OC(=O)N1CCC(c2noc(-c3ccnc(CC4CC4)c3)n2)CC1 [Compound 1082]	359	> 45000
O=C(OC1CC1)N1CCN(c2noc(-c3ccc4cnn(C5COC5)c4c3)n2)CC(F)(F)C1 [Compound 1083]	33	> 45000
O=C(OC1CCC1)N1CCC(c2nnc(-c3ccc4cnn(C5CCOC5)c4c3)o2)CC1 (stereo not drawn) [Compound 1084]	27	> 45000
COC(=O)N1CCC(c2noc(-c3cc(C#N)c4cnn(C5COC5)c4c3)n2)CC1 [Compound 1085]	532	> 45000
CC(C)(C)OC(=O)N1CCC(c2noc(-c3cc(F)cc(N4CCOCC4)c3)n2)CC1 [Compound 1086]	19	> 45000
O=C(N1CCC(c2noc(-c3ccnc(C4CCOC4)c3)n2)CC1)C1(F)CC1 (stereo not drawn) [Compound 1087]	41	> 45000
COC(=O)N1CCC(c2cc(-c3cc4c(cn3)cnn4C(C)C)no2)CC1 [Compound 1088]	2520	> 45000
CCC(=O)N1CCC(c2cc(-c3cc4c(cn3)cnn4C(C)C)no2)CC1 [Compound 1089]	4680	> 45000
CC(C)C(=O)N1CCC(c2noc(-c3ccnc(C4CCOC4)c3)n2)CC1 (stereo not drawn) [Compound 1090]	540	> 45000
CC(N1CCC(c2nc(-c3ccc4cnn(C5COC5)c4c3)no2)CC1)C(F)(F)F (stereo not drawn) [Compound 1091]	3620	> 45000
CC(C)(C)OC(=O)N1CCC(c2noc(-c3ccc4cnn([C@@H]5CCOC5)c4c3)n2)CC1 [Compound 1092]	10	32300
O=C(C1CCC1)N1CCC(c2noc(-c3ccc4cnn([C@@H]5CCOC5)c4c3)n2)CC1 [Compound 1093]	2.53	> 45000

Compound	IC50 [1] [nM]	IC50 [2] [nM]
COC(=O)N1CCC(c2noc(-c3ccc4cnn(C5COC(C)(C)C5)c4c3)n2)CC1 (stereo not drawn) [Compound 1094]	17400	> 45000
COC(=O)N1CCC(c2noc(-c3ccc4cn(C5COC(C)(C)C5)nc4c3)n2)CC1 (stereo not drawn) [Compound 1095]	11100	> 45000
O=C(N1CCC(c2noc(-c3ccc4cnn([C@@H]5CCOC5)c4c3)n2)CC1)C1(F)CC1 [Compound 1096]	1.01	> 45000
O=C(N1CCC(c2noc(-c3ccnc(C4CCOC4)c3)n2)CC1)C1(F)CCC1 (stereo not drawn) [Compound 1097]	20	> 45000
O=C(OC1CC1)N1CCC(c2noc(-c3ccnc(C4CCOC4)c3)n2)CC1 (stereo not drawn) [Compound 1098]	62	> 45000
O=C(c1ccccc1F)N1CCC(c2noc(-c3ccnc(C4CCOC4)c3)n2)CC1 (stereo not drawn) [Compound 1099]	1880	> 45000
O=C(CC1CC1)N1CCC(c2noc(-c3ccnc(C4CCOC4)c3)n2)CC1 (stereo not drawn) [Compound 1100]	738	> 45000
COC(=O)N1CCC(c2noc(-c3ccc4cnn(C5CCN(C)C5=O)c4c3)n2)CC1 (stereo not drawn) [Compound 1101]	16600	27200
COC(=O)N1CCC(c2noc(-c3ccc4cn(C5CCN(C)C5=O)nc4c3)n2)CC1 (stereo not drawn) [Compound 1102]	> 45000	> 45000
O=C(C1CCC1)N1CCC(c2noc(-c3cccc(N4CCOCC4)n3)n2)CC1 [Compound 1103]	23400	> 45000
O=C(CC1CC1)N1CCC(c2noc(-c3ccc4cnn([C@@H]5CCOC5)c4c3)n2)CC1 [Compound 1104]	10	> 45000
O=C(C1CCC1)N1CCC(c2noc(-c3ccnc(N4CCOCC4)c3)n2)CC1 [Compound 1105]	549	> 45000
COC(=O)N1CCC(c2noc(-c3ccnc(N4CCOCC4)c3)n2)CC1 [Compound 1106]	2960	> 45000
CC(C)(C)OC(=O)N1CCC(c2cc(-c3cc4c(cn3)cnn4C3COC3)on2)CC1 [Compound 1107]	10	> 45000
CC(C)n1ncc2ccc(-c3noc(N4CCN5C(=O)N(C)CC5C4)n3)cc21 (stereo not drawn) [Compound 1108]	> 45000	> 45000
O=C(C1CCC1)N1CCC(c2cc(-c3cc4c(cn3)cnn4C3COC3)on2)CC1 [Compound 1109]	50	> 45000
O=C(N1CCC(c2cc(-c3cc4c(cn3)cnn4C3COC3)on2)CC1)C1(F)CC1 [Compound 1110]	10	> 45000
COC(=O)N1CCC(c2cc(-c3cc4c(cn3)cnn4C3COC3)on2)CC1 [Compound 1111]	179	> 45000
CC(C)C(=O)N1CCC(c2noc(-c3ccc4cnn(C5COC5)c4c3F)n2)CC1 [Compound 1112]	193	> 45000
